From PubChem BioAssay (NCI)
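All cell lines were grown in 96-well plates and treated with compound for 48 hours. Abbreviation: GI50, concentration required for 50% inhibition of growth. TGI denotes the concentration required for complete inhibition of growth.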

Experiments:
Assay in all cases: DTP human tumour cell line panel, 48 h
RPMI-8226 leukemia = test system: RPMI-8226 leukemia
SK-OV-3 ovarian = test system: SK-OV-3 ovarian
MDA-MB-435 = test system: MDA-MB-435
HS 578T breast = test system: HS 578T breast
MCF7 breast = test system: MCF7 breast
PC-3 prostate = test system: PC-3 prostate
SR leukemia = test system: SR leukemia
LOX IMVI melanoma = test system: LOX IMVI melanoma
BT-549 breast = test system: BT-549 breast
A549 NSCLC = test system: A549 NSCLC
SK-MEL-5 melanoma = test system: SK-MEL-5 melanoma
HL-60(TB) leukemia = test system: HL-60(TB) leukemia
HCC-2998 colon = test system: HCC-2998 colon
SK-MEL-2 melanoma = test system: SK-MEL-2 melanoma
UACC-257 melanoma = test system: UACC-257 melanoma
OVCAR-5 ovarian = test system: OVCAR-5 ovarian
SF-295 CNS = test system: SF-295 CNS
NCI-H460 lung = test system: NCI-H460 lung
NCI-H23 lung = test system: NCI-H23 lung
IGROV1 ovarian = test system: IGROV1 ovarian
T-47D breast = test system: T-47D breast
HCT-15 colon = test system: HCT-15 colon
KM12 colon = test system: KM12 colon
TK-10 renal = test system: TK-10 renal
HCT-116 colon = test system: HCT-116 colon
SW-620 colon = test system: SW-620 colon
MOLT-4 leukemia = test system: MOLT-4 leukemia
A498 renal = test system: A498 renal
SNB-19 CNS = test system: SNB-19 CNS
786-0 renal = test system: 786-0 renal
K-562 leukemia = test system: K-562 leukemia
OVCAR-8 ovarian = test system: OVCAR-8 ovarian
COLO 205 colon = test system: COLO 205 colon
M14 melanoma = test system: M14 melanoma
NCI-H226 lung = test system: NCI-H226 lung
NCI-H522 lung = test system: NCI-H522 lung
SK-MEL-28 melanoma = test system: SK-MEL-28 melanoma
SNB-75 CNS = test system: SNB-75 CNS
CAKI-1 renal = test system: CAKI-1 renal
SF-268 CNS = test system: SF-268 CNS
SF-539 CNS = test system: SF-539 CNS
HT29 colon = test system: HT29 colon
EKVX NSCLC = test system: EKVX NSCLC
UO-31 renal = test system: UO-31 renal
CCRF-CEM leukemia = test system: CCRF-CEM leukemia
UACC-62 melanoma = test system: UACC-62 melanoma
HOP-92 NSCLC = test system: HOP-92 NSCLC
ACHN renal = test system: ACHN renal
OVCAR-3 ovarian = test system: OVCAR-3 ovarian
NCI/ADR-RES ovarian = test system: NCI/ADR-RES ovarian
MALME-3M melanoma = test system: MALME-3M melanoma
DU-145 prostate = test system: DU-145 prostate
MDA-MB-231 breast = test system: MDA-MB-231 breast
OVCAR-4 ovarian = test system: OVCAR-4 ovarian
U251 CNS = test system: U251 CNS
RXF 393 renal = test system: RXF 393 renal
HOP-62 NSCLC = test system: HOP-62 NSCLC
SN12C renal = test system: SN12C renal

O=C1CCc2c(sc3[nH]c(=S)n(Cc4ccc(Cl)cc4)c(=O)c23)C1
GI50 (RPMI-8226 leukemia): 383 nM
GI50 (SK-OV-3 ovarian): 2860 nM
TGI (SK-OV-3 ovarian): 8920 nM
GI50 (MDA-MB-435): 1440 nM
TGI (MDA-MB-435): 8330 nM
GI50 (HS 578T breast): 460 nM
TGI (HS 578T breast): > 100000 nM
GI50 (MCF7 breast): 2220 nM
TGI (MCF7 breast): > 38600 nM
GI50 (PC-3 prostate): 309 nM
TGI (PC-3 prostate): > 35800 nM
GI50 (SR leukemia): 562 nM
TGI (SR leukemia): > 45200 nM
GI50 (LOX IMVI melanoma): 410 nM
TGI (LOX IMVI melanoma): 5400 nM
GI50 (BT-549 breast): 363 nM
TGI (BT-549 breast): 3030 nM
GI50 (A549 NSCLC): 497 nM
TGI (A549 NSCLC): 16600 nM
GI50 (SK-MEL-5 melanoma): 362 nM
TGI (SK-MEL-5 melanoma): 1130 nM
GI50 (HL-60(TB) leukemia): 347 nM
TGI (HL-60(TB) leukemia): 1810 nM
GI50 (HCC-2998 colon): 577 nM
TGI (HCC-2998 colon): 2300 nM
GI50 (SK-MEL-2 melanoma): 2070 nM
TGI (SK-MEL-2 melanoma): 6120 nM
GI50 (UACC-257 melanoma): 1330 nM
TGI (UACC-257 melanoma): 5720 nM
GI50 (OVCAR-5 ovarian): 743 nM
TGI (OVCAR-5 ovarian): 3600 nM
GI50 (SF-295 CNS): 863 nM
TGI (SF-295 CNS): 4680 nM
GI50 (NCI-H460 lung): 377 nM
TGI (NCI-H460 lung): 3700 nM
GI50 (NCI-H23 lung): 345 nM
TGI (NCI-H23 lung): 2680 nM
GI50 (IGROV1 ovarian): 454 nM
TGI (IGROV1 ovarian): > 100000 nM
GI50 (T-47D breast): 377 nM
TGI (T-47D breast): 3590 nM
GI50 (HCT-15 colon): 347 nM
TGI (HCT-15 colon): 1640 nM
GI50 (KM12 colon): 361 nM
TGI (KM12 colon): 1680 nM
GI50 (TK-10 renal): 988 nM
TGI (TK-10 renal): > 100000 nM
GI50 (HCT-116 colon): 366 nM
TGI (HCT-116 colon): > 100000 nM
GI50 (SW-620 colon): 393 nM
TGI (SW-620 colon): > 100000 nM
GI50 (MOLT-4 leukemia): 1210 nM
TGI (MOLT-4 leukemia): 17100 nM
GI50 (A498 renal): 1870 nM
TGI (A498 renal): 7250 nM
GI50 (SNB-19 CNS): 385 nM
TGI (SNB-19 CNS): > 100000 nM
GI50 (786-0 renal): 1230 nM
TGI (786-0 renal): > 100000 nM
GI50 (K-562 leukemia): 324 nM
TGI (K-562 leukemia): > 100000 nM
GI50 (OVCAR-8 ovarian): 468 nM
TGI (OVCAR-8 ovarian): > 100000 nM
GI50 (COLO 205 colon): 1920 nM
TGI (COLO 205 colon): 3710 nM
GI50 (M14 melanoma): 477 nM
TGI (M14 melanoma): > 56300 nM
GI50 (NCI-H226 lung): 1990 nM
TGI (NCI-H226 lung): 14500 nM
GI50 (NCI-H522 lung): 340 nM
TGI (NCI-H522 lung): 1680 nM
GI50 (SK-MEL-28 melanoma): 640 nM
TGI (SK-MEL-28 melanoma): > 21100 nM
GI50 (SNB-75 CNS): 387 nM
TGI (SNB-75 CNS): > 81400 nM
GI50 (CAKI-1 renal): 451 nM
GI50 (SF-268 CNS): 442 nM
TGI (SF-268 CNS): > 100000 nM
GI50 (SF-539 CNS): 356 nM
TGI (SF-539 CNS): 1630 nM
GI50 (HT29 colon): 3270 nM
TGI (HT29 colon): > 100000 nM
GI50 (EKVX NSCLC): 544 nM
TGI (EKVX NSCLC): > 100000 nM
GI50 (UO-31 renal): 277 nM
TGI (UO-31 renal): 1210 nM
GI50 (CCRF-CEM leukemia): 479 nM
TGI (CCRF-CEM leukemia): > 100000 nM
GI50 (UACC-62 melanoma): 329 nM
TGI (UACC-62 melanoma): 1760 nM
GI50 (HOP-92 NSCLC): 196 nM
TGI (HOP-92 NSCLC): 816 nM
GI50 (ACHN renal): 465 nM
TGI (ACHN renal): 3630 nM
GI50 (OVCAR-3 ovarian): 385 nM
TGI (OVCAR-3 ovarian): > 55600 nM
GI50 (NCI/ADR-RES ovarian): 408 nM
TGI (NCI/ADR-RES ovarian): > 41800 nM
GI50 (MALME-3M melanoma): 972 nM
TGI (MALME-3M melanoma): 3900 nM
GI50 (DU-145 prostate): 2470 nM
TGI (DU-145 prostate): > 100000 nM
GI50 (MDA-MB-231 breast): 379 nM
TGI (MDA-MB-231 breast): 1680 nM
GI50 (OVCAR-4 ovarian): 388 nM
TGI (OVCAR-4 ovarian): 28200 nM
GI50 (U251 CNS): 377 nM
TGI (U251 CNS): 18000 nM
GI50 (RXF 393 renal): 401 nM
TGI (RXF 393 renal): 5050 nM
GI50 (HOP-62 NSCLC): 1470 nM
TGI (HOP-62 NSCLC): > 100000 nM
GI50 (SN12C renal): 384 nM
TGI (SN12C renal): > 84700 nM
